The results in this text go back to ChEMBL document CHEMBL3351396, “Synthesis of the novel elemonic acid derivatives as Pin1 inhibitors” (Bioorg Med Chem Lett, 2014).

Peptidyl-prolyl cis-trans isomerase NIMA-interacting 1, sequence (Q13526 whole entry): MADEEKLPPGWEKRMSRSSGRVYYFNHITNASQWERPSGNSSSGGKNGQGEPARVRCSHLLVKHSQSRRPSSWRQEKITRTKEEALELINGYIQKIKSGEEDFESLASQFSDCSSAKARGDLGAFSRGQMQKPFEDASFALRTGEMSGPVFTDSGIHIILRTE

The experiment concerns the target Peptidyl-prolyl cis-trans isomerase NIMA-interacting 1 (Homo sapiens, UniProt Q13526). Briefly: Inhibition of Pin1 (unknown origin) using Suc-Ala-Glu-Pro-Phe-4-nitroanilide as substrate after 30 mins by protease-coupled assay.
In general, IC50 refers to the concentration that inhibits the measured activity by half. Regarding `CC(C)=CCC[C@H](C(=O)OCc1ccccc1)[C@@H]1CC[C@]2(C)C3=C(CC[C@@]12C)[C@@]1(C)C/C(=C\C(=O)N2CCNCC2)C(=O)C(C)(C)[C@@H]1CC3`, the half-inhibitory concentration (IC50) is above 40 µM.

On to `CN(C)C(=O)CC[C@H](C(=O)OCc1ccccc1)[C@@H]1CC[C@]2(C)C3=C(CC[C@@]12C)[C@@]1(C)CCC(=O)C(C)(C)[C@@H]1CC3`, for which 0.83 µM corresponded to half-maximal inhibition (IC50).

Molecule `CC1(C)C(=O)CC[C@]2(C)C3=C(CC[C@@H]12)[C@@]1(C)CC[C@@H]([C@H](CCC#N)C(=O)OCc2ccccc2)[C@]1(C)CC3` came in with an IC50 of 14.1 µM.

`COC(=O)CC[C@H](C(=O)OCc1ccccc1)[C@@H]1CC[C@]2(C)C3=C(CC[C@@]12C)[C@@]1(C)CCC(=O)C(C)(C)[C@@H]1CC3`: the IC50 was above 40 µM.

For `CC(C)=CCC[C@H](C(=O)OCc1ccccc1)[C@@H]1CC[C@]2(C)C3=C(CC[C@@]12C)[C@@]1(C)C/C(=C\C(=O)N2CCN(C)CC2)C(=O)C(C)(C)[C@@H]1CC3`, half-maximal inhibition (IC50) was put at 32.3 µM.

The molecule `CC(C)=CCC[C@H](C(=O)O)[C@@H]1CC[C@]2(C)C3=C(CC[C@@]12C)[C@@]1(C)CCC(=O)C(C)(C)[C@@H]1CC3` showed an IC50 of 13.2 µM.

As to `CC1(C)C(=O)CC[C@]2(C)C3=C(C(=O)C[C@@H]12)[C@@]1(C)CC[C@@H]([C@H](CCC(=O)O)C(=O)OCc2ccccc2)[C@]1(C)CC3`, the 50% inhibitory concentration (IC50) is above 40 µM.

On to `CC1(C)C(=O)CC[C@]2(C)C3=C(CC[C@@H]12)[C@@]1(C)CC[C@@H]([C@H](CCC(=O)O)C(=O)OCc2ccccc2)[C@]1(C)CC3`, for which 3.68 µM corresponded to half-maximal inhibition (IC50). This counts as single-digit micromolar.

Molecule `CC1(C)C(=O)CC[C@]2(C)C3=C(CC[C@@H]12)[C@@]1(C)CC[C@@H]([C@H](CCC(N)=O)C(=O)OCc2ccccc2)[C@]1(C)CC3` yielded a half-inhibitory concentration (IC50) above 40 µM.

Molecule `CC1(C)C(=O)CC[C@]2(C)C3=C(CC[C@@H]12)[C@@]1(C)CC[C@@H]([C@H](CCc2nnn[nH]2)C(=O)OCc2ccccc2)[C@]1(C)CC3` yielded an IC50 of 2.6 µM.

For `CC1(C)C(=O)CC[C@]2(C)C3=C(CC[C@@H]12)[C@@]1(C)CC[C@@H]([C@H](CCC(=O)N2CCNCC2)C(=O)OCc2ccccc2)[C@]1(C)CC3`, the IC50 is above 40 µM.

Turning to `CC1(C)C(=O)CC[C@]2(C)C3=C(CC[C@@H]12)[C@@]1(C)CC[C@@H]([C@H](CCC(=O)O)C(=O)OCc2ccccc2)[C@]1(C)CC3=O`, inhibition was half-maximal at 1.47 µM (IC50).

In turn, `CN1CCN(C(=O)CC[C@H](C(=O)OCc2ccccc2)[C@@H]2CC[C@]3(C)C4=C(CC[C@@]23C)[C@@]2(C)CCC(=O)C(C)(C)[C@@H]2CC4)CC1` registered an IC50 of 31.5 µM.

For the molecule `CC(C)=CCC[C@H](C(=O)OCc1ccccc1)[C@@H]1CC[C@]2(C)C3=C(CC[C@@]12C)[C@@]1(C)C/C(=C\C(=O)O)C(=O)C(C)(C)[C@@H]1CC3`, the concentration for half-maximal inhibition (IC50) stood at 0.57 µM. Compared with the last molecule, the IC50 is about 55-fold lower.
